Laboratory results: PMC11249953, “c-KIT inhibitors reduce pathology and improve behavior in the Tg(SwDI) model of Alzheimer’s disease” (Life Science Alliance, 2024)

Experiments:
[1] = system: amyloid-beta in TgAPP mice; test: Immunohistochemistry for amyloid-beta (6E10), hippocampus; type: in vivo, mouse; conditions: BK40143 5 mg/kg, BK40197 45 mg/kg, vs DMSO
Method: Staining for amyloid-beta and microglia was performed on left brain hemispheres collected from treated and untreated mice. Brains were cryoprotected with 30% sucrose and sectioned at 30 μm on a cryostat. Sections were then treated with an anti-amyloid beta (6E10, cat. #803001; BioLegend) or anti-IBA1 (cat. # 018-28523; Wako Chemicals) primary followed by either an AlexaFluor secondary (Thermo Fisher Scientific) and DAPI mounting medium (Vector Labs) or a biotinylated secondary and 3, 3′ diaminobenzidine chromogen substrate. Slides were imaged on either a Leica DMi8 light microscope or a Zeiss LSM 800 confocal microscope.

MEK5 = molecular target: T1, MEK5 (Homo sapiens, UniProt Q13163); test: KINOMEscan competition binding, MEK5; conditions: 10 µM compound; for remaining binding at 10 µM: lower = stronger binding, read-out: MEK5 %Ctrl @ 10000nM (POC)
T1 construct: DNA label for qPCR read-out (T7 phage fusion or DNA tag); purchased Eurofins DiscoverX Corporation; host or cells: T7 phage in E. coli (BL21-derived) or HEK-293
T1 sequence (Q13163 1-448): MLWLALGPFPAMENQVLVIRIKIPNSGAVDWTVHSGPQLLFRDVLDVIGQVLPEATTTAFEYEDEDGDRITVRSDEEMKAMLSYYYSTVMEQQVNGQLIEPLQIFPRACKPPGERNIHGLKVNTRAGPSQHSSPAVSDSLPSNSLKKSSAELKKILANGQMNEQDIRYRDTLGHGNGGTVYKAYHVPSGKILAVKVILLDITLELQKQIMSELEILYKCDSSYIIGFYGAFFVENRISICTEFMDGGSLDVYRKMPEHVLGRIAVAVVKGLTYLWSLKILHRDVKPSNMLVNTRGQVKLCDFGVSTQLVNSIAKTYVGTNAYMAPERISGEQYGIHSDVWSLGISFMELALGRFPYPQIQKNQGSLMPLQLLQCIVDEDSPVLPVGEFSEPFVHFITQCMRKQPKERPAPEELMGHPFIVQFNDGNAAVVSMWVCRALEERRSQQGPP
Method: (§1) The KINOMEscan screening platform (Eurofins DiscoverX Corporation) was performed using active site-directed competition binding assay to quantitatively measure interactions between BK40143 and BK40197 and more than 450 human kinases and disease relevant mutant variants. […] Screening “hits” are identified by measuring the amount of kinase captured in test (BK40143 and BK40197) versus control samples by using a quantitative and ultra-sensitive qRT-PCR method that detects the associated DNA label. BK40143 and BK40197 were screened at 10 µM concentration, and results for primary screen binding interactions were reported as “% Ctrl” (POC), where lower numbers indicate stronger hits and calculated as follows: [test compound signal−positive control signal/negative control signal−positive control signal]×100
(§2) negative control = DMSO (100% Ctrl)
(§3) positive control = control compound (0% Ctrl)
(§4) Based on screening data from of profiled compounds, a proportional relationship between primary screening results and corresponding compound/target affinities can be described as binding constants (Kd values) for the indicated ranges of POC values with tighter binding (higher affinity) interactions associated with lower POC values and weaker binding (lower affinity) associated with higher POC values. Briefly, kinase-tagged T7 phage strains were grown in parallel in 24-well blocks in an E. coli host derived from the BL21 strain. E. coli were grown to log-phase and infected with T7 phage from a frozen stock (multiplicity of infection = 0.4) and incubated with shaking at 32°C until lysis (90–150 min). The lysates were centrifuged (6,000g) and filtered (0.2 μm) to remove cell debris. The remaining kinases were produced in HEK-293 cells and subsequently tagged with DNA for qRT-PCR detection. Streptavidin-coated magnetic beads were treated with biotinylated small molecule ligands for 30 min at RT to generate affinity resins for kinase assays. The liganded beads were blocked with excess biotin and washed with blocking buffer (1% BSA, 0.05% Tween 20, 1 mM DTT; SeaBlock [Pierce]) to remove unbound ligand and to reduce non-specific phage binding. Binding reactions were assembled by combining kinases, liganded affinity beads, and test compounds in 1x binding buffer (20% 0.17x PBS, 0.05% Tween 20, 6 mM DTT; SeaBlock). Test compounds were prepared as 100x stocks in 100% DMSO and directly diluted into the assay. All reactions were performed in polypropylene 384-well plates in a final volume of 0.02 ml. The assay plates were incubated at RT with shaking for 1 h and the affinity beads were washed with wash buffer (1x PBS, 0.05% Tween 20). […] The kinase concentration in the eluates was measured by qRT-PCR.

[2] = system: SH-SY5Y neuroblastoma cells transfected with α-synuclein; test: In vitro autophagy assay (Abcam kit, flow cytometry); type: cell-based, human; conditions: 10 μM, vs DMSO
Method: To establish that treatment with BK40143 and BK40197 induces autophagy, human SH-SY5Y neuroblastoma cells were transfected with an α-synuclein plasmid before being treated with rapamycin/chloroquine as a positive control, DMSO as a negative control, or an ascending dose ([…]) of either BK40143 or BK40197 for 8 h. Cells were then harvested and treated using the Abcam Autophagy Assay kit, which uses a cationic amphiphilic tracer to stain autophagic vacuoles, before analysis via flow cytometry.
Human SH-SY5Y neuroblastoma cells were grown and cultured in F12 media with 10% fetal bovine serum, 1% L-glutamine, and 1% pen/strep at normal atmospheric conditions (37°C, 21% O2, 5% CO2). Upon reaching 50–70% confluence, cells were transduced with a lentivirus containing an alpha-synuclein plasmid and allowed to grow for 8 h. Cells were then treated with an ascending dose (100 nM–10 μM) of BK40143 or BK40197, or DMSO or rapamycin/chloroquine overnight before being harvested and treated with the Abcam Autophagy Assay kit (cat. #ab139484) according to manufacturer’s protocols. Cells were then resuspended in cell staining buffer before being analyzed on a Becton Dickinson LSRFortessas flow cytometer.

pTau = test: ELISA for pTau (S396) in brain lysates; type: in vivo, mouse; conditions: Tg4510 mice; vs DMSO
Method: All samples were analyzed in parallel using the same reagents. A total of 25 μl soluble protein was incubated overnight at 4°C with 25 μl of a mixed bead solution. After washing, samples were incubated with 25 μl detection antibody solution for 1.5 h at RT. Streptavidin–phycoerythrin (25 μl) was added to each well containing the 25 μl of detection antibody solution. Samples were then washed and suspended in 100 μl of sheath fluid. Samples were then run on MAGPIX with Xponent software. The median fluorescent intensity data were analyzed using a five-parameter logistic or spline curve-fitting method for calculating analyte concentrations in samples. Specific pTau ser396 (KHB7031; Invitrogen), aggregated Aβ (KHB3491; Thermo Fisher Scientific), and Aβ42 (KHB3442; Invitrogen) were performed according to manufacturer’s protocol on tissue soluble extracts from brain lysates in 1XSTEN buffer.

CIT = molecular target: T2, CIT (Homo sapiens, UniProt O14578); test: KINOMEscan competition binding, CIT; conditions: 10 µM compound; for remaining binding at 10 µM: lower = stronger binding, read-out: CIT %Ctrl @ 10000nM (POC)
T2 construct: DNA label for qPCR read-out (T7 phage fusion or DNA tag); purchased Eurofins DiscoverX Corporation; host or cells: T7 phage in E. coli (BL21-derived) or HEK-293
Method: as §1, §2, §3, §4

T2 sequence (O14578 whole entry, the tested form may be a part): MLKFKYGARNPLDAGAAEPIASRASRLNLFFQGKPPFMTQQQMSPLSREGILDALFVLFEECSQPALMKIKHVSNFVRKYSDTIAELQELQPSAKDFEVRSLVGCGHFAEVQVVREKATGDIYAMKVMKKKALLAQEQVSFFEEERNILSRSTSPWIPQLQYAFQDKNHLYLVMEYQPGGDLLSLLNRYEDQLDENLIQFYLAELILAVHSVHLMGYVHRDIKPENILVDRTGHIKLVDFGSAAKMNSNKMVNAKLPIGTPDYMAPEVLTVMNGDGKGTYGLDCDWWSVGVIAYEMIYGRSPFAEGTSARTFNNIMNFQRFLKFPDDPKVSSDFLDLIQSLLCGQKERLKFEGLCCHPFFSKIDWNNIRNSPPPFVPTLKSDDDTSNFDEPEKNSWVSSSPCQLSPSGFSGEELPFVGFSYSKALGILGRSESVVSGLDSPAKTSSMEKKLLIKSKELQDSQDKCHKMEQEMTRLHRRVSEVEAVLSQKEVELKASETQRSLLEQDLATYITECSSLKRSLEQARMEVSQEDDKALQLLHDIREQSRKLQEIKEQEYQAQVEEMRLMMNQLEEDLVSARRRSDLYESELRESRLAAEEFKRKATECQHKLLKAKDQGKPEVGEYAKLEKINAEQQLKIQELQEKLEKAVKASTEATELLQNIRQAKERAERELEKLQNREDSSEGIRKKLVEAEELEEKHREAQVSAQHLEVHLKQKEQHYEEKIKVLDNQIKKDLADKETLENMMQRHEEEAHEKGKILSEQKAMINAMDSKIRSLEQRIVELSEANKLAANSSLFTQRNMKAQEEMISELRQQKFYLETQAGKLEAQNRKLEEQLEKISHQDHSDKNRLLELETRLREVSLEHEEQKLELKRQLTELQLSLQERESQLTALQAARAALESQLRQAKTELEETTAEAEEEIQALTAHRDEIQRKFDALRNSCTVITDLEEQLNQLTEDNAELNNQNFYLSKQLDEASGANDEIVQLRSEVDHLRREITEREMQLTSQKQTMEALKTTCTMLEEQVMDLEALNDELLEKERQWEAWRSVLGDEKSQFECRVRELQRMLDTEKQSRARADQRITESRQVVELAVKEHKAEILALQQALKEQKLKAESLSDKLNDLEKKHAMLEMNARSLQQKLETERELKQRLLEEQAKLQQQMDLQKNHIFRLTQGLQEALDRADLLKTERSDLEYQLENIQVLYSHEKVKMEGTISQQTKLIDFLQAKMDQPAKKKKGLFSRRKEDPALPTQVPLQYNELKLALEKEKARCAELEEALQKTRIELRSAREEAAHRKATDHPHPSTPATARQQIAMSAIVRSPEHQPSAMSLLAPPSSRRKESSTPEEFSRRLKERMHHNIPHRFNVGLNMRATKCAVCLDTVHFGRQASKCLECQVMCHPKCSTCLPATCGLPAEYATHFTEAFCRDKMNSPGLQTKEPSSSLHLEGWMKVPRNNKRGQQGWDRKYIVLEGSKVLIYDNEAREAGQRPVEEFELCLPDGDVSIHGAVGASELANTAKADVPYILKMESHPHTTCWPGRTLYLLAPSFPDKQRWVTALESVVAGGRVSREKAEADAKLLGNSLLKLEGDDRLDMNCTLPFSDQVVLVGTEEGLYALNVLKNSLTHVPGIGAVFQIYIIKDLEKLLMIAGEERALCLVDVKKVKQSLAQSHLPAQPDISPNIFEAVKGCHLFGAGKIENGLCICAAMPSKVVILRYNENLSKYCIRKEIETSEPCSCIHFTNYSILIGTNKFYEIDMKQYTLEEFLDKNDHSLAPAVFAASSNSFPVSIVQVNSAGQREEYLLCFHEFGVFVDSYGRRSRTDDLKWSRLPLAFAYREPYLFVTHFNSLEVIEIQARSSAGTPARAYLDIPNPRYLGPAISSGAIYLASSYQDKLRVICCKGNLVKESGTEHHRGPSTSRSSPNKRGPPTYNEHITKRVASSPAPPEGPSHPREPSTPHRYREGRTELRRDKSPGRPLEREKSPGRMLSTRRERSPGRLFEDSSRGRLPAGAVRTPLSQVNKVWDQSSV

Row | Compound | amyloid concentrations in dentate gyrus (6E10 staining) [1] | inhibition at 10 µM (MEK5) | remaining binding at 10 µM (MEK5) | labelled cells (autophagic vacuoles), induction of autophagy [2] | pTau (396) concentration in brain lysate (ELISA) (pTau) | inhibition at 10 µM (CIT) | remaining binding at 10 µM (CIT)
1 | Cc1cccc(-c2cc3nccc(N4CCOCC4)c3s2)c1 [BK40197] | robustly decreased amyloid concentrations in the dentate gyrus of the hippocampus | 93.1% | 6.9% | significant increases in labelled cells | significantly reduced Aβ and pTau (396) concentrations | 19% | 81%
2 | Cc1cccc(-c2cc3nccc(Nc4ccccc4)c3s2)c1 [BK40143] | robustly decreased amyloid concentrations in the dentate gyrus of the hippocampus | 99.7% | 0.35% | significant increases in labelled cells | significantly reduced Aβ and pTau (396) concentrations | 97.2% | 2.8%
